These results are taken from patent US8030506B2, “Tumor selective and biodegradable cyclotriphosphazene-platinum(II) conjugate anticancer agent, and preparation method thereof” (Nanohybrid Co., Ltd, priority 2007, dated 2011).

Test systems include MES-SA (uterine cancer); A-431 (vulvar cancer); SK-OV3 (ovarian cancer); MCF (breast cancer).
Experiment in all cases: In vitro cytotoxicity against human cancer cell lines
What all share (conditions): read-out: In vitro cytotoxicities, IC50

In the case of `N.N.O=C([O-])C1(C(=O)[O-])CCC1.[Pt+2]` [Carboplatin, carboplatin], the IC50 was determined as 48 µM in the data set on MES-SA (uterine cancer), 45.9 µM in the data set on A-431 (vulvar cancer), 76.5 µM in the data set with SK-OV3 (ovarian cancer) and 48 µM in the data set with MCF (breast cancer).

One may read the IC50 as the concentration that gives 50% inhibition.
